According to patent publication US8247211B2, “Glycopeptide antibiotics” (American Cyanamid Company, priority 2001, dated 2012):
Values after ≈ are worked out from the molar mass of the structure shown.

Columns and labels:
Assay in all cases: In vitro antibacterial evaluation: minimum inhibitory concentration (MIC), broth dilution method
Type in all cases: cell-based
[1] = system: Staphylococcus sp.; conditions: for MIC Staphylococcus aureus (ATCC 29213): strain ATCC 29213; for MIC Staphylococcus aureus (GC 1131): strain GC 1131; for MIC Staphylococcus aureus (GC 3051): strain GC 3051; for MIC Staphylococcus aureus (GC 3053): strain GC 3053; for MIC Staphylococcus aureus (GC 4541): strain GC 4541; for MIC Staphylococcus aureus (GC 4542): strain GC 4542; for MIC Staphylococcus aureus (GC 4544): strain GC 4544; for MIC Staphylococcus aureus (GC 4545): strain GC 4545
Experimental: (§1) The minimum inhibitory concentration (MIC), the lowest concentration of the antibiotic which inhibits growth of the test organism, is determined by the broth dilution method using Muller-Hinton II […] (Baltimore Biological Laboratories) following the recommendations of the National Committee for Clinical Laboratory Standards [Methods for dilution antimicrobial susceptibility tests for bacteria that grow aerobically, approved standard M7-A2, National Committee for Clinical Laboratory Standards, Villanova, Pa].
(§2) An inoculum level of 5×10^5 CFU/mL, and a range of antibiotic concentrations (64-0.06 μg/mL) is used. […] The test organisms include a spectrum of Gram-positive bacteria comprised of Staphylococcus sp., Streptococcus sp. and Enterococcus sp. These organisms include recent clinical isolates that are resistant to methicillin, penicillin and/or vancomycin.

[2] = system: Streptococcus sp.; conditions: broth dilution, 5×10^5 CFU/mL, 18 hours at 35° C.
Experimental: as §1, §2

[3] = system: Escherichia coli; conditions: 5×10^5 CFU/mL, 18 hours at 35° C.
Experimental: as §1, §2

[4] = system: Enterococcus sp.; conditions: broth dilution, 5×10^5 CFU/mL, 18 hours at 35° C.
Experimental: as §1, §2

[5] = broth dilution, 5×10^5 CFU/mL, 18 hours at 35° C.
[6] = broth dilution, 18 hours at 35° C.
[7] = strain GC 4543, broth dilution, 18 hours at 35° C.
[8] = strain GC 4546, broth dilution, 18 hours at 35° C.
[9] = strain GC 4547, broth dilution, 18 hours at 35° C.
[10] = strain GC 4548, broth dilution, 18 hours at 35° C.
[11] = strain GC 4549, broth dilution, 18 hours at 35° C.
[12] = strain GC 4551, broth dilution, 18 hours at 35° C.
[13] = strain GC 6257, broth dilution, 18 hours at 35° C.

CC(c1ccccc1)C1NC(=O)CNC(=O)C(CO)NC(=O)C(C(O)C2CNC(=N)N2C2OC(CO)C(O)C(O)C2O)NC(=O)C(C(O)C2CNC(=N)N2)NC(=O)C(Cc2ccc(OC3OC(CO)C(OC4OC5COC(CC67CC8CC(CC(C8)C6)C7)OC5C(O)C4O)C(O)C3O)cc2)NC1=O (stereo not shown) [Example 129]
MIC Coagulase Negative Staphylococcus (GC 4547) [1, 5]: 2 µg/mL (≈ 1.37 µM)
MIC Coagulase Negative Staphylococcus (GC 4548) [1, 5]: 1 µg/mL (≈ 0.687 µM)
MIC Coagulase Negative Staphylococcus (GC 4549) [1, 5]: 1 µg/mL (≈ 0.687 µM)
MIC Coagulase Negative Staphylococcus (GC 4551) [1, 5]: 4 µg/mL (≈ 2.75 µM)
MIC Coagulase Negative Staphylococcus (GC 6257) [1, 5]: 1 µg/mL (≈ 0.687 µM)
MIC Staphylococcus aureus-SMITH (GC 4543) [1, 5]: 2 µg/mL (≈ 1.37 µM)
MIC Staphylococcus haemolyticus (GC 4546) [1, 5]: 2 µg/mL (≈ 1.37 µM)
MIC Staphylococcus aureus (ATCC 29213) [1]: 4 µg/mL (≈ 2.75 µM)
MIC Staphylococcus aureus (ATCC 29213) [1, 6]: 4 µg/mL (≈ 2.75 µM)
MIC Staphylococcus aureus (GC 1131) [1]: 2 µg/mL (≈ 1.37 µM)
MIC Staphylococcus aureus (GC 1131) [1, 6]: 2 µg/mL (≈ 1.37 µM)
MIC Staphylococcus aureus (GC 3051) [1]: 2 µg/mL (≈ 1.37 µM)
MIC Staphylococcus aureus (GC 3051) [1, 6]: 2 µg/mL (≈ 1.37 µM)
MIC Staphylococcus aureus (GC 3053) [1]: 2 µg/mL (≈ 1.37 µM)
MIC Staphylococcus aureus (GC 3053) [1, 6]: 2 µg/mL (≈ 1.37 µM)
MIC Staphylococcus aureus (GC 4541) [1]: 2 µg/mL (≈ 1.37 µM)
MIC Staphylococcus aureus (GC 4541) [1, 6]: 2 µg/mL (≈ 1.37 µM)
MIC Staphylococcus aureus (GC 4542) [1]: 2 µg/mL (≈ 1.37 µM)
MIC Staphylococcus aureus (GC 4542) [1, 6]: 2 µg/mL (≈ 1.37 µM)
MIC Staphylococcus aureus-SMITH (GC 4543) [1, 7]: 2 µg/mL (≈ 1.37 µM)
MIC Staphylococcus aureus (GC 4544) [1]: 2 µg/mL (≈ 1.37 µM)
MIC Staphylococcus aureus (GC 4544) [1, 6]: 2 µg/mL (≈ 1.37 µM)
MIC Staphylococcus aureus (GC 4545) [1]: 2 µg/mL (≈ 1.37 µM)
MIC Staphylococcus aureus (GC 4545) [1, 6]: 2 µg/mL (≈ 1.37 µM)
MIC Staphylococcus haemolyticus (GC 4546) [1, 8]: 2 µg/mL (≈ 1.37 µM)
MIC Coagulase Negative Staphylococcus (GC 4547) [1, 9]: 2 µg/mL (≈ 1.37 µM)
MIC Coagulase Negative Staphylococcus (GC 4548) [1, 10]: 1 µg/mL (≈ 0.687 µM)
MIC Coagulase Negative Staphylococcus (GC 4549) [1, 11]: 1 µg/mL (≈ 0.687 µM)
MIC Coagulase Negative Staphylococcus (GC 4551) [1, 12]: 4 µg/mL (≈ 2.75 µM)
MIC Coagulase Negative Staphylococcus (GC 6257) [1, 13]: 1 µg/mL (≈ 0.687 µM)
MIC Streptococcus agalactiae (GC 4564) [2]: <0.06 µg/mL
MIC Streptococcus pneumoniae (GC 1894) [2]: <0.06 µg/mL
MIC Streptococcus pneumoniae (GC 4565) [2]: <0.06 µg/mL
MIC Streptococcus pneumonine (ATCC 6301) [2]: <0.06 µg/mL
MIC Streptococcus pyogenes (GC 4563) [2]: <0.06 µg/mL
MIC Escherichia coli (ATCC 25922) [3]: 32 µg/mL (≈ 22 µM)
MIC Escherichia coli (GC 4559) [3]: 32 µg/mL (≈ 22 µM)
MIC Escherichia coli (GC 4560) [3]: 2 µg/mL (≈ 1.37 µM)
MIC Enterococccus avium (GC 4558) [4]: 2 µg/mL (≈ 1.37 µM)
MIC Enterococccus faecalis (ATCC 29212) [4]: 2 µg/mL (≈ 1.37 µM)
MIC Enterococccus faecalis (GC 2691) [4]: 2 µg/mL (≈ 1.37 µM)
MIC Enterococccus faecalis (GC 3059) [4]: 2 µg/mL (≈ 1.37 µM)
MIC Enterococccus faecalis (GC 4552) [4]: 2 µg/mL (≈ 1.37 µM)
MIC Enterococccus faecalis (GC 4553) [4]: 2 µg/mL (≈ 1.37 µM)
MIC Enterococccus faecalis (GC 4554) [4]: 2 µg/mL (≈ 1.37 µM)
MIC Enterococccus faecalis (GC 6189) [4]: 2 µg/mL (≈ 1.37 µM)
MIC Enterococccus faecium (GC 2243) [4]: 2 µg/mL (≈ 1.37 µM)
MIC Enterococccus faecium (GC 4556) [4]: 2 µg/mL (≈ 1.37 µM)
MIC Enterococccus faecium (GC 4557) [4]: 2 µg/mL (≈ 1.37 µM)
MIC Enterococcus faecalis (GC 2242) [4]: 2 µg/mL (≈ 1.37 µM)

COC1CCC2(C)C(CCC3C2CCC2(C)C(C(C)CCC4OCC5OC(OC6C(CO)OC(Oc7ccc(CC8NC(=O)C(C(C)c9ccccc9)NC(=O)CNC(=O)C(CO)NC(=O)C(C(O)C9CNC(=N)N9C9OC(CO)C(O)C(O)C9O)NC(=O)C(C(O)C9CNC(=N)N9)NC8=O)cc7)C(O)C6O)C(O)C(O)C5O4)CCC32)C1 (stereo not drawn) [Example 130, Cyclo[glycyl-β-methylphenylalanyl-O-[4-O-[4,6-O-(3-methoxycholan-24-ylidene)hexopyranosyl]hexopyranosyl]tyrosyl-3-(2-iminoimidazolidin-4-yl)seryl-3-(3-hexopyranosyl-2-iminoimidazolidin-4-yl)serylseryl]]
MIC Coagulase Negative Staphylococcus (GC 4547) [1, 5]: 32 µg/mL (≈ 19.4 µM)
MIC Coagulase Negative Staphylococcus (GC 4548) [1, 5]: 32 µg/mL (≈ 19.4 µM)
MIC Coagulase Negative Staphylococcus (GC 4549) [1, 5]: 16 µg/mL (≈ 9.69 µM)
MIC Coagulase Negative Staphylococcus (GC 4551) [1, 5]: 32 µg/mL (≈ 19.4 µM)
MIC Coagulase Negative Staphylococcus (GC 6257) [1, 5]: 32 µg/mL (≈ 19.4 µM)
MIC Staphylococcus aureus-SMITH (GC 4543) [1, 5]: 32 µg/mL (≈ 19.4 µM)
MIC Staphylococcus haemolyticus (GC 4546) [1, 5]: 32 µg/mL (≈ 19.4 µM)
MIC Staphylococcus aureus (ATCC 29213) [1]: 32 µg/mL (≈ 19.4 µM)
MIC Staphylococcus aureus (ATCC 29213) [1, 6]: 32 µg/mL (≈ 19.4 µM)
MIC Staphylococcus aureus (GC 1131) [1]: 32 µg/mL (≈ 19.4 µM)
MIC Staphylococcus aureus (GC 1131) [1, 6]: 32 µg/mL (≈ 19.4 µM)
MIC Staphylococcus aureus (GC 3051) [1]: 32 µg/mL (≈ 19.4 µM)
MIC Staphylococcus aureus (GC 3051) [1, 6]: 32 µg/mL (≈ 19.4 µM)
MIC Staphylococcus aureus (GC 3053) [1]: 32 µg/mL (≈ 19.4 µM)
MIC Staphylococcus aureus (GC 3053) [1, 6]: 32 µg/mL (≈ 19.4 µM)
MIC Staphylococcus aureus (GC 4541) [1]: 32 µg/mL (≈ 19.4 µM)
MIC Staphylococcus aureus (GC 4541) [1, 6]: 32 µg/mL (≈ 19.4 µM)
MIC Staphylococcus aureus (GC 4542) [1]: 32 µg/mL (≈ 19.4 µM)
MIC Staphylococcus aureus (GC 4542) [1, 6]: 32 µg/mL (≈ 19.4 µM)
MIC Staphylococcus aureus-SMITH (GC 4543) [1, 7]: 32 µg/mL (≈ 19.4 µM)
MIC Staphylococcus aureus (GC 4544) [1]: 32 µg/mL (≈ 19.4 µM)
MIC Staphylococcus aureus (GC 4544) [1, 6]: 32 µg/mL (≈ 19.4 µM)
MIC Staphylococcus aureus (GC 4545) [1]: 32 µg/mL (≈ 19.4 µM)
MIC Staphylococcus aureus (GC 4545) [1, 6]: 32 µg/mL (≈ 19.4 µM)
MIC Staphylococcus haemolyticus (GC 4546) [1, 8]: 32 µg/mL (≈ 19.4 µM)
MIC Coagulase Negative Staphylococcus (GC 4547) [1, 9]: 32 µg/mL (≈ 19.4 µM)
MIC Coagulase Negative Staphylococcus (GC 4548) [1, 10]: 32 µg/mL (≈ 19.4 µM)
MIC Coagulase Negative Staphylococcus (GC 4549) [1, 11]: 16 µg/mL (≈ 9.69 µM)
MIC Coagulase Negative Staphylococcus (GC 4551) [1, 12]: 32 µg/mL (≈ 19.4 µM)
MIC Coagulase Negative Staphylococcus (GC 6257) [1, 13]: 32 µg/mL (≈ 19.4 µM)
MIC Streptococcus agalactiae (GC 4564) [2]: 8 µg/mL (≈ 4.84 µM)
MIC Streptococcus pneumoniae (GC 1894) [2]: 1 µg/mL (≈ 0.605 µM)
MIC Streptococcus pneumoniae (GC 4565) [2]: 4 µg/mL (≈ 2.42 µM)
MIC Streptococcus pneumonine (ATCC 6301) [2]: 8 µg/mL (≈ 4.84 µM)
MIC Streptococcus pyogenes (GC 4563) [2]: 16 µg/mL (≈ 9.69 µM)
MIC Escherichia coli (ATCC 25922) [3]: >64 µg/mL
MIC Escherichia coli (GC 4559) [3]: >64 µg/mL
MIC Escherichia coli (GC 4560) [3]: 64 µg/mL (≈ 38.7 µM)
MIC Enterococccus avium (GC 4558) [4]: 16 µg/mL (≈ 9.69 µM)
MIC Enterococccus faecalis (ATCC 29212) [4]: 32 µg/mL (≈ 19.4 µM)
MIC Enterococccus faecalis (GC 2691) [4]: 32 µg/mL (≈ 19.4 µM)
MIC Enterococccus faecalis (GC 3059) [4]: 64 µg/mL (≈ 38.7 µM)
MIC Enterococccus faecalis (GC 4552) [4]: 32 µg/mL (≈ 19.4 µM)
MIC Enterococccus faecalis (GC 4553) [4]: 8 µg/mL (≈ 4.84 µM)
MIC Enterococccus faecalis (GC 4554) [4]: 32 µg/mL (≈ 19.4 µM)
MIC Enterococccus faecalis (GC 6189) [4]: 32 µg/mL (≈ 19.4 µM)
MIC Enterococccus faecium (GC 2243) [4]: 8 µg/mL (≈ 4.84 µM)
MIC Enterococccus faecium (GC 4556) [4]: 64 µg/mL (≈ 38.7 µM)
MIC Enterococccus faecium (GC 4557) [4]: 32 µg/mL (≈ 19.4 µM)
MIC Enterococcus faecalis (GC 2242) [4]: 32 µg/mL (≈ 19.4 µM)
